Some test systems named below: NCI-H460; SF-268; SW-620; HOP-62; T47D; SR; KM12; NCI-H23; HCT-15; UACC-62; HT-29; K562; SN12C; SK-MEL-2; SK-MEL-5; MDA-MB-231; COLO 205; SK-OV-3; HOP-92.
Holding throughout (assay): NCI-60 cell line screen, 48 h

Consider eleven molecules from ChEMBL document CHEMBL1201862, “PubChem BioAssay data set” (2004).

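48-hour exposure; five concentrations; linearly interpolated endpoints. GI50 is the concentration that inhibits growth by half.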 Activity calls are given as the source filed them. Rule as the data show it: active = GI50 up to about 1.1 µM and inactive = higher. Where only a bound is given, the exact number is not on record here.

Take `CC(C(O)c1ccccc1)[N+](=O)[O-]` (stereo not given): the GI50 in the test on NCI-H460 was 35.2 µM (inactive); with SF-268, 31.5 µM (inactive); in the test on SW-620, 8.81 µM (inactive); with HOP-62, 25.3 µM (inactive); with T47D, 15.5 µM (inactive); with SR, 2.68 µM (inactive). For the same molecule, the GI50 is 19.4 µM (inactive) in the test on KM12; 32.8 µM (inactive) with NCI-H23; 11.5 µM in the test on HCT-15; 20.2 µM (inactive) in the test on UACC-62; 27.2 µM (inactive) in the test with HT-29; 6.44 µM (inactive) in the test with K562. For the same molecule, the GI50 with SN12C is 18.1 µM (inactive); in the test on SK-MEL-2, 19.5 µM (inactive); in the test with SK-MEL-5, 17.9 µM (inactive); in the test with MDA-MB-231 it was 26.5 µM (inactive); in the test on COLO 205, 22.4 µM (inactive).
On to `CCCCCCCCCCCCCCCC1(OC)C[N+](C)(C)CCO1` (stereo not given), for which the GI50 was 2.09 µM (inactive) in the test on NCI-H460; 2.08 µM (inactive) in the test on SF-268; 3.21 µM (inactive) in the test with SW-620; 1.61 µM (inactive) in the test with HOP-62; 5.73 µM (inactive) with T47D; 2.25 µM (inactive) in the test with SR. For the same molecule, the GI50 was 0.586 µM (active) in the test on KM12; 4.89 µM (inactive) in the test on SK-OV-3; 1.3 µM (inactive) in the test with NCI-H23; 6.01 µM in the test on HCT-15; 2.76 µM (inactive) with UACC-62; 1.22 µM (inactive) in the test with HT-29. Besides, the GI50 is 1.85 µM (inactive) in the test on K562; 1.66 µM (inactive) with SN12C; 2.38 µM (inactive) with SK-MEL-2; 1.9 µM (inactive) in the test with SK-MEL-5; 1.75 µM (inactive) with MDA-MB-231; 1.31 µM (inactive) with COLO 205.
For the molecule `O=C(/C=C1/Nc2ccc([N+](=O)[O-])cc2N/C1=C/C(=O)c1ccc(Cl)cc1)c1ccccc1`, the GI50 with NCI-H460 was 32 µM (inactive); with SF-268, 30.4 µM (inactive); in the test on HOP-62, 20.8 µM (inactive); in the test with T47D it was > 100 µM (inactive); with SR it was > 100 µM (inactive); with KM12, > 100 µM (inactive). Also, the GI50 with SK-OV-3 is 58.7 µM (inactive); in the test with NCI-H23, 20.3 µM (inactive); in the test with HCT-15, more than 100 µM; with UACC-62, 20.5 µM (inactive); in the test with HT-29, > 100 µM (inactive); with K562, 55.8 µM (inactive). The GI50 in the test with SN12C is > 100 µM (inactive); in the test on SK-MEL-2, 19.9 µM (inactive); in the test with SK-MEL-5, > 100 µM (inactive); in the test with MDA-MB-231 it was 35 µM (inactive); in the test on COLO 205, > 100 µM (inactive).
Regarding `OCCN(CCO)c1ccc2c(-c3ccccc3)cc(N(CCO)CCO)nc2n1`, the GI50 is > 100 µM (inactive) in the test with NCI-H460; > 100 µM (inactive) in the test on SF-268; > 100 µM (inactive) in the test with SW-620; > 100 µM (inactive) in the test with HOP-62; > 100 µM (inactive) in the test on T47D; 20 µM (inactive) with SR. Also, the GI50 was > 100 µM (inactive) in the test with KM12; > 100 µM (inactive) with SK-OV-3; > 100 µM (inactive) with NCI-H23; more than 100 µM in the test on HCT-15; > 100 µM (inactive) in the test on UACC-62; > 100 µM (inactive) in the test with HT-29. Further, the GI50 in the test on K562, with SN12C, in the test on SK-MEL-2, in the test on SK-MEL-5, with MDA-MB-231 and in the test on COLO 205 was > 100 µM (inactive) throughout.
Turning to `COc1ccc2c(c1)nc1n2C(N)=Nc2ccccc2S1`, the GI50 in the test with NCI-H460 is 12.8 µM (inactive); in the test on SF-268 it was 16.7 µM (inactive); in the test with SW-620, 28.5 µM (inactive); in the test on HOP-62, 53.1 µM (inactive); in the test on T47D, 20.8 µM (inactive); in the test on KM12, 15.4 µM (inactive). Moreover, the GI50 in the test with SK-OV-3 is 67 µM (inactive); with NCI-H23, 40.6 µM (inactive); in the test with HCT-15 it was 35.4 µM; in the test with UACC-62, 21 µM (inactive); in the test with HT-29, 17.7 µM (inactive); with K562 it was 4.91 µM (inactive). Moreover, the GI50 was 44.6 µM (inactive) in the test on SN12C; > 100 µM (inactive) in the test on SK-MEL-2; 3.79 µM (inactive) with HOP-92; 7.45 µM (inactive) in the test with SK-MEL-5; 52.5 µM (inactive) in the test on MDA-MB-231; 6.08 µM (inactive) in the test with COLO 205.
For the molecule `Cc1ccc(-n2cnc3c(N/N=C4\SCC(=O)N4c4ccccc4)ncnc32)cc1`, the GI50 was 2.9 µM (inactive) in the test with NCI-H460; 4.88 µM (inactive) in the test with SF-268; 4.01 µM (inactive) in the test with SW-620; 15.2 µM (inactive) in the test on HOP-62; 3.97 µM (inactive) with T47D; 1.07 µM (active) in the test on KM12. The GI50 with SK-OV-3 is 14.6 µM (inactive); in the test with NCI-H23 it was 3.37 µM (inactive); with HCT-15, 2.3 µM; in the test with UACC-62, 4.37 µM (inactive); in the test on HT-29, 3.44 µM (inactive); in the test on K562, 1.29 µM (inactive). For the same molecule, the GI50 with SN12C was 2.97 µM (inactive); in the test on SK-MEL-2 it was 2.31 µM (inactive); with HOP-92, 2.66 µM (inactive); with SK-MEL-5 it was 3.9 µM (inactive); with MDA-MB-231, 3.3 µM (inactive); with COLO 205, 4.98 µM (inactive).
For `O=C(CCc1ccc(O)cc1)NCCCNC(=O)CCc1ccc(O)cc1`, the GI50 with NCI-H460, in the test on SF-268, in the test on SW-620, in the test with HOP-62, with T47D and in the test on SR was > 100 µM (inactive) throughout. Moreover, the GI50 in the test on KM12 was > 100 µM (inactive); with SK-OV-3, > 100 µM (inactive); in the test with NCI-H23, > 100 µM (inactive); in the test with HCT-15, more than 100 µM; in the test with UACC-62, > 100 µM (inactive); in the test with HT-29, > 100 µM (inactive). Also, the GI50 in the test on K562, in the test on SN12C, in the test on SK-MEL-2, in the test on SK-MEL-5, in the test on MDA-MB-231 and in the test with COLO 205 was > 100 µM (inactive) each time.
`NC12CC3CC4C1CC1CC2C(C3)C4(N)C1`: the GI50 in the test with NCI-H460, in the test with SF-268, in the test with SW-620, with HOP-62, in the test on T47D and in the test with KM12 was > 100 µM (inactive) throughout. The GI50 in the test on SK-OV-3 is > 100 µM (inactive); in the test on NCI-H23, > 100 µM (inactive); in the test on HCT-15, more than 100 µM; in the test on UACC-62, > 100 µM (inactive); in the test on HT-29 it was > 100 µM (inactive); in the test on K562, > 100 µM (inactive). The GI50 with SN12C, in the test on SK-MEL-2, with HOP-92, with SK-MEL-5, with MDA-MB-231 and in the test with COLO 205 was > 100 µM (inactive) in each case.
As to `COc1cc2c(cc1OC)C(c1ccccc1CCCCl)=NCC2`, the GI50 in the test on NCI-H460 is 48.6 µM (inactive); with SF-268, 58.2 µM (inactive); with SW-620, 25.6 µM (inactive); with HOP-62 it was > 100 µM (inactive); with T47D it was 42.8 µM (inactive); in the test with KM12, 55.6 µM (inactive). The GI50 is > 100 µM (inactive) in the test with SK-OV-3; 42.5 µM (inactive) with NCI-H23; more than 100 µM in the test with HCT-15; 40.9 µM (inactive) in the test on UACC-62; 44.2 µM (inactive) with HT-29; 35.8 µM (inactive) in the test with K562. The GI50 with SN12C is 93.1 µM (inactive); in the test on SK-MEL-2, > 100 µM (inactive); with HOP-92, 39.1 µM (inactive); in the test on SK-MEL-5, 23.3 µM (inactive); with MDA-MB-231, > 100 µM (inactive); in the test on COLO 205, 40 µM (inactive).
Turning to `O=S(=O)(O)c1cc(S(=O)(=O)O)c2cc(/N=N/c3c(O)ccc4ccccc34)ccc2c1`, the GI50 in the test on SF-268, with SW-620, in the test with HOP-62, in the test on T47D, in the test with KM12 and with SK-OV-3 was > 100 µM (inactive) in each case. Moreover, the GI50 with NCI-H23 is > 100 µM (inactive); in the test on HCT-15, more than 100 µM; in the test with UACC-62, > 100 µM (inactive); with HT-29, > 100 µM (inactive); in the test on K562 it was > 100 µM (inactive); with SN12C, > 100 µM (inactive). The GI50 in the test on SK-MEL-2, in the test with HOP-92, in the test with SK-MEL-5, in the test on MDA-MB-231 and with COLO 205 was > 100 µM (inactive) in each case.
Consider `NC(=O)/C=c1/c2ccccc2n2nc3ccccc3c12`, for which the GI50 was 25.8 µM (inactive) in the test with NCI-H460; 10.2 µM (inactive) in the test on SF-268; 17.5 µM (inactive) in the test with SW-620; 26.1 µM (inactive) with HOP-62; 7.01 µM (inactive) in the test on T47D; 2.68 µM (inactive) in the test on SR. For the same molecule, the GI50 with KM12 was 14.3 µM (inactive); in the test with SK-OV-3, 16.3 µM (inactive); with NCI-H23, 22.1 µM (inactive); in the test with HCT-15, 12.2 µM; in the test with UACC-62 it was 19.4 µM (inactive); with HT-29, 15.9 µM (inactive). Also, the GI50 with K562 was 15.3 µM (inactive); with SN12C, 19.1 µM (inactive); with SK-MEL-2, 15.6 µM (inactive); in the test on SK-MEL-5, 35.6 µM (inactive); in the test with MDA-MB-231, 2.76 µM (inactive); in the test with COLO 205, 20.4 µM (inactive).
